Laboratory results: patent US10155754B2, “Substituted 2-imino-1,3-thiazolidin-4-ones as N-arachidonoylethanolamine cellular uptake inhibitors” (UNIVERSITAT BERN, priority 2014, dated 2018)

Legend:
FAAH = target: T1, FAAH (Homo sapiens, UniProt O00519); test: FAAH activity: hydrolysis of [3H]-AEA in U937 cell homogenates; type: biochemical; settings: [3H]-AEA hydrolysis, final 100 nM AEA, read-out: FAAH inhibition IC50
T1 construct: endogenous in cells; host or cells: U937 cell homogenate
T1 sequence (O00519 1-579): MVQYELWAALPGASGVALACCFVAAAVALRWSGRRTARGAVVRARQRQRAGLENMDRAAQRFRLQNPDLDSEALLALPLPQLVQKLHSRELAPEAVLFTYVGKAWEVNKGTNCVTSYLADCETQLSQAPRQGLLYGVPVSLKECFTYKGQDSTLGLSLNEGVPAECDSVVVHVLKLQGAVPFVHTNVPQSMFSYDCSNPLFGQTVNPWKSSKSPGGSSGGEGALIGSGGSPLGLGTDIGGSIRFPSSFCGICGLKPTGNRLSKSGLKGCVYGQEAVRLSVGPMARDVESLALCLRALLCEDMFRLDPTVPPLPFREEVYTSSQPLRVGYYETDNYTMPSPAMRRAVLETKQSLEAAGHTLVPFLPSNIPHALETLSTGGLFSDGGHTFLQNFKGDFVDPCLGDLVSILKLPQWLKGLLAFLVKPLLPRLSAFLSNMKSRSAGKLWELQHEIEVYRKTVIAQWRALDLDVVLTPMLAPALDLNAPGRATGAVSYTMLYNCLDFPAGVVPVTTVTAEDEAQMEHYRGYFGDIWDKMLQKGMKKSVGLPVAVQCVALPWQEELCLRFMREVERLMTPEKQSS
Protocol: Hydrolysis of [^3H]-AEA by FAAH was determined as previously described in cell homogenates of U937 cells (0.18 mg protein) (Omeir et al., 1999, Biochem Biophys Res Commun, 264, 316-20; Mor et al., 2004, J Med Chem, 47, 4998-5008). Protein amounts of cell homogenates corresponded to 0.5×10^6 cells (U937), to assure best possible comparability of IC50 values as used for the AEA cellular uptake assays. URB597 was used as positive control. Protein quantification was performed using a BCA assay (Thermo Scientific). Enzyme activity was assessed by addition of vehicle or compounds in 10 μL DMSO to 490 μL homogenate in 10 mM Tris HCl, 1 mM EDTA, 0.1% (w/v) BSA fatty acid free, pH=8 and incubation for 15 min at 37° C. After, a mixture of AEA plus [ethanolamine-1-^3H]-AEA (0.5 nM) at final 100 nM was added to the homogenates and incubated for 15 min at 37° C. The reaction was stopped by addition of 1 mL ice-cold CHCl3:MeOH (1:1) followed by vigorous vortexing. Phase separation was achieved by centrifugation at 10'000×g at 4° C. for 10 min. Radioactivity of the separated aqueous phase (upper phase) containing [^3H-ethanolamine] or [^3H-glycerol] was measured by liquid scintillation counting on a Tri-Carb 2100 TR liquid scintillation analyzer after addition of 3.5 mL Ultima Gold scintillation cocktail (PerkinElmer Life Sciences). Results are expressed as hydrolysis of tritium substrate in percent of vehicle treated control. IC50 values were calculated by GraphPad®. Data are reported as means of n=3 independent experiments performed in triplicates.

[1] = test system: AEA cellular uptake (U937 cells); test: [3H]-AEA cellular uptake inhibition in U937 cells; type: cell-based; settings: Homo sapiens, U-937, U937 cells, final 100 nM AEA with 0.5 nM [3H]-AEA, 15 min at 37° C.; read-out: AEA uptake IC50
Procedure, shortened: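 U937 cells (0.5×10^6 per sample) pre-incubated with compound (100 pM–100 μM, triplicates) for 15 min at 37 °C, then given 100 nM AEA including 0.5 nM [3H]-AEA for 15 min. Filtration, washing and scintillation counting of cell-associated radioactivity; IC50 by four-parameter nonlinear regression.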

Structure (SMILES)	IC50 (FAAH)	IC50 [1]
Cc1ccc(/N=C2\S/C(=C\c3ccc(CO)cc3)C(=O)N2c2ccc(C)cc2)cc1 [22_A_A, (2Z,5Z)-5-(4-(hydroxymethyl)benzylidene)-2-(p-tolylimino)-3-p-tolylthiazolidin-4-one]	> 100 µM	341 nM
Cc1ccc(/N=C2\S/C(=C\c3ccc(CO)cc3)C(=O)N2CC(C)C)cc1 [22_A_X, (2Z,5Z)-5-(4-(hydroxymethyl)benzylidene)-2-(p-tolylimino)-3-isobutylthiazolidin-4-]	> 100 µM	150 nM
Cc1ccc(N2C(=O)/C(=C/c3ccc(CO)cc3)S/C2=N\c2ccc(F)cc2)cc1 [22_B_A, (2Z,5Z)-5-(4-(hydroxymethyl)benzylidene)-2-(4-fluorophenylimino)-3-p-tolylthiazolidin-4-one]	> 100 µM	386 nM
O=C1/C(=C/c2ccc3c(c2)OCCO3)S/C(=N\c2ccc(F)cc2)N1C1CCCCC1 [22_B_I]	> 100 µM	–
COc1ccc(/N=C2\S/C(=C\c3ccc(CO)cc3)C(=O)N2c2ccccc2)cc1 [22_F_N, (2Z,5Z)-5-(4-(hydroxymethyl)benzylidene)-2-(4-methoxyphenylimino)-3-phenylthiazolidin-4-one]	> 100 µM	135 nM
Cc1ccc(/N=C2\S/C(=C\c3ccc4c(c3)OCCO4)C(=O)N2c2ccc(C)cc2)cc1 [24_A_A, (2Z,5Z)-2-(p-tolylimino)-5-((2,3-dihydrobenzo[b][1,4]dioxin-6-yl)methylene)-3-p-tolylthiazolidin-4-one]	> 100 µM	286 nM
Cc1ccc(/N=C2\S/C(=C\c3ccc4c(c3)OCCO4)C(=O)N2C2CCCCC2)cc1 [24_A_I, (2Z,5Z)-3-cyclohexyl-5-(2,3-dihydro-1,4-benzodioxin-6-ylmethylene)-2-(p-tolylimino)thiazolidin-4-one]	> 100 µM	301 nM
O=C1/C(=C/c2ccc3c(c2)OCCO3)S/C(=N\c2ccc(F)cc2)N1c1ccc(F)cc1 [24_B_B, (2Z,5Z)-2-(4-fluorophenylimino)-3-(4-fluorophenyl)-5-((2,3-dihydrobenzo[b][1,4]dioxin-6-yl)methylene)thiazolidin-4-one]	> 100 µM	170 nM
O=C1/C(=C/c2ccc3c(c2)OCCO3)S/C(=N\Cc2ccccc2)N1c1ccc(F)cc1 [24_C_B, (2Z,5Z)-2-(benzylimino)-3-(4-fluorophenyl)-5-((2,3-dihydrobenzo[b][1,4]dioxin-7-yl)methylene)thiazolidin-4-one]	> 100 µM	–
O=C1/C(=C/c2ccc3c(c2)OCCO3)S/C(=N\Cc2ccccc2)N1Cc1ccccc1 [24_C_C, (2Z,5Z)-3-benzyl-2-(benzylimino)-5-((2,3-dihydrobenzo[b][1,4]dioxin-7-yl)methylene)thiazolidin-4-one]	> 100 µM	–
COc1ccc(N2C(=O)/C(=C/c3ccc4c(c3)OCCO4)S/C2=N\Cc2ccccc2)cc1 [24_C_F, (2Z,5Z)-2-(benzylimino)-5-((2,3-dihydrobenzo[b][1,4]dioxin-7-yl)methylene)-3-(4-methoxyphenyl)thiazolidin-4-one]	> 100 µM	–

More lines, now with the values ahead:

IC50 (FAAH)	IC50 [1]	Structure (SMILES)
> 100 µM	315 nM	Cc1ccc(/N=C2\S/C(=C\c3ccc4[nH]ccc4c3)C(=O)N2c2ccc(C)cc2)cc1 [03_A_A, (2Z,5Z)-5-((1H-indol-5-yl)methylene)-2-(p-tolylimino)-3-p-tolylthiazolidin-4-one]
> 100 µM	479 nM	CC(C)CN1C(=O)/C(=C/c2ccc3[nH]ccc3c2)S/C1=N\c1ccc(F)cc1 [03_B_X, (2Z,5Z)-5-((1H-indol-5-yl)methylene)-2-(4-fluorophenylimino)-3-isobutylthiazolidin-4-one]
< 10 µM	403 nM	O=C1/C(=C/c2ccc3[nH]ccc3c2)S/C(=N\Cc2ccc(F)cc2)N1c1ccccc1 [03_P_N, (2Z,5Z)-5-((1H-indol-5-yl)methylene)-2-(4-fluorobenzylimino)-3-phenylthiazolidin-4-one]
> 100 µM	262 nM	O=C1/C(=C/c2ccc3[nH]ccc3c2)S/C(=N\Cc2ccccc2Cl)N1c1ccccc1 [03_T_N, (2Z,5Z)-5-((1H-indol-5-yl)methylene)-2-(2-chlorobenzylimino)-3-phenylthiazolidin-4-one]
> 100 µM	390 nM	Cc1ccc(/N=C2\S/C(=C\c3ccc4[nH]cnc4c3)C(=O)N2c2ccc(C)cc2)cc1 [04_A_A, (2Z,5Z)-5-((1H-benzo[d]imidazol-5-yl)methylene)-2-(p-tolylimino)-3-p-tolylthiazolidin-4-one]
> 100 µM	107 nM	Cc1ccc(/N=C2\S/C(=C\c3ccc4[nH]cnc4c3)C(=O)N2c2ccccc2)cc1 [04_A_N, (2Z,5Z)-5-((1H-benzo[d]imidazol-5-yl)methylene)-2-(p-tolylimino)-3-phenylthiazolidin-4-one]
14.5 µM	155 nM	Cc1ccc(/N=C2\S/C(=C\c3ccc4[nH]cnc4c3)C(=O)N2CC(C)C)cc1 [04_A_X, (2Z,5Z)-5-((1H-benzo[d]imidazol-5-yl)methylene)-2-(p-tolylimino)-3-isobutylthiazolidin-4-one]
22.9 µM	132 nM	O=C1/C(=C/c2ccc3[nH]cnc3c2)S/C(=N\c2ccc(F)cc2)N1C1CCCCC1 [04_B_I, (2Z,5Z)-5-((1H-benzo[d]imidazol-5-yl)methylene)-2-(4-fluorophenylimino)-3-cyclohexylthiazolidin-4-one]
> 10 µM	484 nM	COc1ccc(N2C(=O)/C(=C/c3ccc4[nH]cnc4c3)S/C2=N\Cc2ccccc2)cc1 [04_C_F, (2Z,5Z)-5-((1H-benzo[d]imidazol-5-yl)methylene)-2-(benzylimino)-3-(4-methoxyphenyl)thiazolidin-4-one]
> 100 µM	164 nM	COc1ccc(/N=C2\S/C(=C\c3ccc4[nH]cnc4c3)C(=O)N2c2ccccc2)cc1 [04_F_N, (2Z,5Z)-5-((1H-benzo[d]imidazol-5-yl)methylene)-2-(4-methoxyphenylimino)-3-phenylthiazolidin-4-one]
< 10 µM	368 nM	COCc1cccc(/C=C2\S/C(=N\Cc3ccc(OC)cc3)N(c3ccccc3)C2=O)c1 [15_Q_N, (2Z,5Z)-5-(3-(methoxymethyl)benzylidene)-2-(4-methoxybenzylimino)-3-phenylthiazolidin-4-one]
19.5 µM	111 nM	Cc1ccc(/N=C2\S/C(=C\c3ccc(CO)cc3)C(=O)N2c2ccccc2)cc1 [22_A_N, (2Z,5Z)-5-(4-(hydroxymethyl)benzylidene)-2-(p-tolylimino)-3-phenylthiazolidin-4-one]
19.1 µM	127 nM	CC(C)CN1C(=O)/C(=C/c2ccc(CO)cc2)S/C1=N\c1ccc(F)cc1 [22_B_X, (2Z,5Z)-5-(4-(hydroxymethyl)benzylidene)-2-(4-fluorophenylimino)-3-isobutylthiazolidin-4-one]
6.61 µM	97 nM	O=C1/C(=C/c2ccc(CO)cc2)S/C(=N\CCCc2ccccc2)N1c1ccccc1 [22_K_N, (2Z,5Z)-2-(3-phenylpropylimino)-5-(4-(hydroxymethyl)benzylidene)-3-phenylthiazolidin-4-one]
> 10 µM	180 nM	O=C1/C(=C/c2ccccc2)S/C(=N\Cc2ccccc2)N1c1ccccc1 [23_C_N, (2Z,5Z)-5-benzylidene-2-(benzylimino)-3-phenylthiazolidin-4-one]
